The values that follow are results of earlier work, collected in patent US20070166816A1, “Assay device that analyzes the absorption, metabolism, permeability and/or toxicity of a candidate compound” (Surface Logix, Inc., priority 2002, published 2007).

For data set [1] the following is noted: previously characterized in humans; qualitative grade.
The subject of the next data set is Caco-2 cells. The settings on record: previously characterized in Caco-2 assays; qualitative grade.

Turning to `OC[C@@H](O)[C@@H](O)[C@H](O)[C@H](O)CO` [Mannitol-reference, Mannitol], the Absorbance in vivo entry in data set [1] is reported as “Very low”. In addition, the Absorbance in vitro entry in the data set with Caco-2 cells is given as “Low”. With `NS(=O)(=O)c1cc2c(cc1Cl)N=CNS2(=O)=O` [Chlorothiazide], in the data set with Caco-2 cells, the Absorbance in vitro result was “Low”. As to `O=c1[nH]cc(F)c(=O)[nH]1` [5-Fluorouracil], the Absorbance in vivo result in data set [1] is recorded as “Low”. The Absorbance in vitro entry in the data set on Caco-2 cells is “Very High”. On to `COc1ccc2cc([C@H](C)C(=O)O)ccc2c1` [Naproxein], for which the Absorbance in vivo result in data set [1] is reported as “High”. In the data set with Caco-2 cells, the Absorbance in vitro result is listed as “High”.

Consider `NS(=O)(=O)c1cc(C(=O)O)c(NCc2ccco2)cc1Cl` [Furosemide], for which, in data set [1], the Absorbance in vivo result is “Moderate”. Turning to `CC(C)NCC(O)COc1cccc2ccccc12` (stereo not drawn) [Propranolol--reference, Propranolol], in the data set on Caco-2 cells, the Absorbance in vitro entry is given as “Moderate”.
